According to patent US5574059A, “Treating disorders mediated by vascular smooth muscle cell proliferation” (priority 1995, dated 1996):
Read-outs that look alike come from different tables or passages of the source.

How the values were obtained:
I2 imidazoline receptors = assay: inhibition of 3H-idazoxan (5 nM) binding to rat aortic smooth muscle cell membranes; details: Table 2; 3H-idazoxan 5 nM; rat aortic smooth muscle cell membranes; read-out: Ki
Method: Binding to I2 imidazoline receptors is determined by the following assay. Membranes are prepared from cultured cells for ligand binding as described in Regunathan, S., et al, Biochem. Pharmacol. 45, 1667-1675 (1993) and Regunathan, S., et al, J. Neurosci. Res. 34, 681-688 (1993) and the disclosure in these on this is incorporated herein by reference. In particular, harvested rat aortic smooth muscle cells are homogenized in Hepes-sucrose buffer (pH 7.4) with a Teflon-glass homogenizer and centrifuged at 1000 × g for 10 minutes. The pellets are suspended in ice-cold Tris-HCl buffer (pH 7.7) with 5mM ethylene diamine tetracetic acid and homogenized using a Polytron (Brinkman Instruments) for 10 seconds. The homogenate is centrifuged at 40,000 × g for 30 minutes to produce a membrane pellet. The membrane pellet is washed three times by resuspending in buffer and re-centrifuging. The washed pellet is suspended in fresh Tris-HCl buffer (pH 7.4) to provide approximately 100 μg protein per assay tube. Binding assays are performed in Tris-HCl buffer (pH 7.7) using 5 nM of […]. Non-specific binding is defined by 100 μM of unlabelled idazoxan which will inhibit the specific binding of ^3 H-idazoxan. Thus the binding remaining in the presence 100 μM of idazoxan is due to non-specific binding and this will be substracted from total binding to calculate the specific binding. Following incubation at 25° C. for 30 minutes, reaction is terminated by rapid vacuum filtration over Whatman GF/B filters and washed with 10 ml of ice-cold buffer. Filters are suspended in scintillation fluid and radioactivity counted in a liquid scintillation counter. Membrane protein is assayed by Coomassie Blue method (Pierce) using bovine serum albumin as standard.
Determination of inhibition constant (Ki) for each drug is determined as follows: The binding of ^3 H-idazoxan to membranes of vascular smooth muscle cells is determined in the presence of 0.1 nM to 100 μM concentrations of potential drug. The percent inhibition of specific binding of ^3 H-idazoxan by each concentration is calculated and plotted against concentration. The data is analyzed by non-linear curve fitting program, LIGAND and the IC50 value for each potential drug is calculated. The affinity for each drug (Ki) for I2 imidazoline receptors is calculated using the formula Ki =IC50 /1+L/Kd where L is the concentration of ^3 H-idazoxan used for binding and Kd is the dissociation constant for ^3 H-idazoxan for I2 imidazoline receptors. The dissociation constant (Kd) is determined by Scatchard analysis of the saturation binding of ^3 H-idazoxan using the formula [formula] where B and F are the amount of bound and free ligand, respectively, and Bmax is the number of binding sites.
Primary cultures of rat-aortic smooth muscle cells were prepared by a modification (described in Erlinge, Do, et al, Am. J. Physiol. 265, H1089-1097, 1993) of the method of Meyer-Lehnert and Schrier (Meyer-Lehnert, H., et al, Hypertension 13,350-361, 1989), the disclosure of these cited articles being incorporated herein by reference. Briefly, rats were killed by anesthetic overdose and the aorta were removed and incubated with collagenase (2 mg/ml) in Dulbecco's modified Eagle's minimum essential medium (DMEM). The vessel was stripped of adventitia, cut longitudinally and the intima scraped away. After further collagenase treatment, the remaining tissue was passed 20 times through 18 and 16 gauge needles. The resulting cell suspension was centrifuged at 500 × g for 5 minutes and resuspended in DMEM containing penicillin (100 units/ml), streptomycin (100 μg/ml), 2 mM L-glutamine and 10% fetal calf serum. The suspended cells were plated in T-75 flasks, cultured until confluent, and subcultured in 100 mm plates. The confluent cells were harvested and membranes were prepared. Cell viability was determined by trypan blue exclusion.

[1] = tested on: rat aortic smooth muscle cells; assay: serum-stimulated proliferation, 3H-thymidine incorporation into DNA; type: cell-based; details: for IC50: Rattus norvegicus, read-out: 3H-thymidine incorporated (IC50)
Method: Inhibition of serum-stimulated proliferation of rat aortic smooth muscle cells is determined as follows: The antiproliferative effect of potential drug is determined by measuring the incorporation of ^3 H-thymidine into cellular DNA. Exposure of quiescent vascular smooth muscle cell to serum, which contains many growth factors, results in a large increase in cellular proliferation as measured by ^3 H-thymidine incorported into DNA. The inhibitory effect of potential drug on serum-stimulated proliferation is tested by adding a drug before the addition of serum and determining if the serum-stimulated proliferation is reduced. […] In that event, antagonizing of the antiproliferative effect of idazoxan is determined by adding antagonist before the addition of idazoxan to serum-stimulated vascular smooth muscle cells.
In this experiment, the proliferation of vascular smooth muscle cells was determined by measuring DNA replication. The incorporation of ^3 H-thymidine into DNA was used to measure the replication of DNA as described in Erlinge, D., et al, Am. J. Physiol. 265, H1089-H1097 (1993) which is incorporated herein by reference.
Rat aortic smooth muscle cells prepared as described in In Vitro Example 1 were plated into 24-well plates at a density of about 30,000 cells/well in 10% fetal calf serum (FCS). After 48 hours, the cells were starved in 0.5% FCS for another 48 hours to decrease proliferation and induce quiescence. The medium was replaced by serum-free medium 24 hours prior to addition of drug (drugs are described below) and 10% fetal calf serum or only 10% fetal calf serum in the case of the control. The cells were then incubated for 24 hours and ^3 H-thymidine (1 μCi/well) was added at hour 20. At the end of the 24 hour period, the medium was aspirated and the cells were washed three times with phosphate-buffered saline and twice with ice-cold trichloroacetic acid. Fixed cells were then solubilized in 0.2M NaOH and sonicated. A 100 μl aliquot was used for scintillation counting.

[2] = Example I: patient with intermittent claudication, iliac artery plaques; type: in vivo, human; details: over 30 days oral; idazoxan 50 and 75 mg/day, UK 14,304 125, naphazoline 125, cirazoline 75, agmatine 900 mg/day
Text: A person presents with progressive symptoms of intermittent claudication in both legs.

[3] = Example II: patient with narrowing of right common carotid artery, balloon angiography; type: in vivo, human; details: idazoxan 50 or 75 mg/day two weeks before and 3 months after balloon angiography; UK 14,304 125, cirazoline 60, naphazoline 125, agmatine 900 mg/day
Method: A person presents with a history of intermittent brief episodes of transient monocular blindness in the right eye associated with clumsiness and weakness of the left arm and leg. Angiography indicates substantial narrowing of the right common carotid artery. They are with treated with idazoxan at a dosage of 50 or 75 mg/day for two weeks preceding balloon angiography and for 3 months thereafter.

[4] = Example III: patient with coronary artery disease, angioplasty; type: in vivo, human; details: idazoxan 50 mg/day continued for 3 months; substitutes, dose not stated
Method: A person presents with the onset of chest pain on exertion. […] Ten days before angioplasty, the patient is begun on 75 or 100 mg/day of idazoxan. […] Treatment with 50 mg/day idazoxan is continued for 3 months.

[5] = Example IV: patient with fibromuscular dysplasia of the renal artery, angioplasty; type: in vivo, human; details: idazoxan 75 mg/day; UK 14,304 60, naphazoline 125, cirazoline 60, agmatine 900 mg/day
[6] = Example V: patient with Type I diabetes mellitus, overgrowth of retinal vessels; type: in vivo, human; details: idazoxan 75 mg/day; UK 14,304 60, naphazoline 125, cirazoline 60, agmatine 900 mg/day
Text: A person with Type I diabetes mellitus and maintained on insulin presents with progressive symptoms of loss of visual acuity bilaterally with evidence on opthalmascopic examination of overgrowth of retinal vessels and hemorrhages.

[7] = 10% fetal calf serum stimulated

| SMILES | Ki (I2 imidazoline receptors) [µM] | inhibition of vascular smooth muscle cell proliferation, in words [1, 7] | IC50 [1] [µM] | symptoms of intermittent claudication [2] | symptoms and restenosis of the vessel [3] | symptoms / restenosis after angioplasty [4] | re-elevation of pressure / restenosis of the renal artery [5] | progression and visual symptoms [6] | IC50 ([1]; 10% fetal calf serum stimulated, 24 h) [µM] |
| --- | --- | --- | --- | --- | --- | --- | --- | --- | --- |
| NCCCCN=C(N)N [Agmatine, 4-(aminobutylguanidine)] | 0.24 ± 0.025 | weakly inhibited | 340 ± 29 | stabilization of symptoms | comparable results | comparable results, i.e., no restenosis | comparable results, i.e., no restenosis | comparable results, i.e., no restenosis |  |
| Brc1c(NC2=NCCN2)ccc2nccnc12 [UK 14,304, 5-bromo-N-(4,5-dihydro-1-H-imidazol-2-yl)-6-quinoxalinamine] | 0.02 ± 0.0014 | potently inhibited |  | stabilization of symptoms | comparable results | comparable results, i.e., no restenosis | comparable results, i.e., no restenosis | comparable results, i.e., no restenosis | 15.6 ± 2.8 |
